{"source": "paper PMC12483202", "about": "“Pharmacokinetic profile of oral firocoxib in the koala (Phascolarctos cinereus)” (PLOS One, 2025)", "key": {"[1]": {"assay": "Non-specific binding to the filtration membrane (phosphate buffered saline)", "format": "in vitro ADME", "conditions": "at a concentration of 250 ng/mL", "method": "The same concentrations of firocoxib were added to phosphate buffered saline and underwent ultrafiltration to determine non-specific binding to the filtration membrane. Thereafter the corrected percentage of substrate binding to plasma proteins was calculated as: […]"}, "[2]": {"design": "method as in ref [4] of S9 Table", "conditions": "Rabbits (6); PO 3.74 -4.20 mg/kg; ref [4] of S9 Table; cited from earlier work"}, "[3]": {"design": "method as in ref [5] of S9 Table", "conditions": "Camels (5); IV 0.1 mg/kg; ref [5] of S9 Table; cited from earlier work"}, "[4]": {"design": "method as in ref [7] of S9 Table", "conditions": "Calves (10); PO 0.5 mg/kg; ref [7] of S9 Table; cited from earlier work"}, "[5]": {"design": "method as in ref [8] of S9 Table", "conditions": "Goats (10), ref [8] of S9 Table, cited from earlier work"}, "[6]": {"design": "method as in ref [9] of S9 Table", "conditions": "Rhinoceros (5); PO 0.1 mg/kg; ref [9] of S9 Table; cited from earlier work"}, "[7]": {"test_system": "equine ischaemic intestinal injury", "design": "method as in PMID 19645580", "conditions": "cited from earlier work"}}, "note": "Where two headings read alike, the source gives them in different places."}
{"smiles": "CC1(C)OC(=O)C(OCC2CC2)=C1c1ccc(S(C)(=O)=O)cc1", "note": "[firocoxib]", "values": [{"measurement": "non-specific binding of firocoxib", "setting": "[1]", "result": 4.06, "unit": "%"}, {"measurement": "Cmax", "setting": "[2]", "result": 160, "unit": "ng/mL"}, {"measurement": "Tmax", "setting": "[2]", "result": 3.81, "unit": "h"}, {"measurement": "t1/2", "setting": "[2]", "result": 9.12, "unit": "h"}, {"measurement": "t1/2", "setting": "[3]", "result": 5.75, "unit": "h"}, {"measurement": "Cmax", "setting": "[4]", "result": 127.9, "unit": "ng/mL"}, {"measurement": "t1/2", "setting": "[4]", "result": 18.8, "unit": "h"}, {"measurement": "t1/2", "setting": "[5]; IV 0.5 mg/kg", "result": 26.41, "unit": "h"}, {"measurement": "Cmax", "setting": "[5]; PO 0.5 mg/kg", "result": 139, "unit": "ng/mL"}, {"measurement": "Tmax", "setting": "[5]; PO 0.5 mg/kg", "result": 0.77, "unit": "h"}, {"measurement": "t1/2", "setting": "[5]; PO 0.5 mg/kg", "result": 21.51, "unit": "h"}, {"measurement": "Cmax", "setting": "[6]", "result": 15.7, "unit": "ng/mL"}, {"measurement": "t1/2", "setting": "[6]", "result": 4.96, "unit": "h"}, {"measurement": "visceral analgesia", "setting": "[7]; equine ischaemic intestinal injury", "result": "efficacious visceral analgesia"}, {"measurement": "mucosal barrier function recovery", "setting": "[7]; firocoxib compared with flunixin meglumine", "result": "superior mucosal barrier function recovery"}]}
